# Test results from ChEMBL document CHEMBL5291721, “A preclinical secondary pharmacology resource illuminates target-adverse drug reaction associations of marketed drugs” (Nat Commun, 2023).
# Experiments:
# [1] = target: T1, B2 bradykinin receptor (Homo sapiens, UniProt P30411)
# T1 sequence (P30411 whole entry): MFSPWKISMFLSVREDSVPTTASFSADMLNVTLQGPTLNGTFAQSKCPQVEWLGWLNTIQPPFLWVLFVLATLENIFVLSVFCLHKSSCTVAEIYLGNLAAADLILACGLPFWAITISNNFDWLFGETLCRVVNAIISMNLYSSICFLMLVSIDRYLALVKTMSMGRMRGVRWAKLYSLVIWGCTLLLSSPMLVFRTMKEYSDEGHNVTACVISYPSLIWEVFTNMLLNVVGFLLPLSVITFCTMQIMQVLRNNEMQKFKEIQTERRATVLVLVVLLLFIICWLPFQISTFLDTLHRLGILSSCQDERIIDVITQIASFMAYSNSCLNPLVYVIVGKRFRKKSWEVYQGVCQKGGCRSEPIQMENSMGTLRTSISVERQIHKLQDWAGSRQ
# [2] = target: T2, Gastrin/cholecystokinin type B receptor (Homo sapiens, UniProt P32239)
# T2 sequence (P32239 whole entry): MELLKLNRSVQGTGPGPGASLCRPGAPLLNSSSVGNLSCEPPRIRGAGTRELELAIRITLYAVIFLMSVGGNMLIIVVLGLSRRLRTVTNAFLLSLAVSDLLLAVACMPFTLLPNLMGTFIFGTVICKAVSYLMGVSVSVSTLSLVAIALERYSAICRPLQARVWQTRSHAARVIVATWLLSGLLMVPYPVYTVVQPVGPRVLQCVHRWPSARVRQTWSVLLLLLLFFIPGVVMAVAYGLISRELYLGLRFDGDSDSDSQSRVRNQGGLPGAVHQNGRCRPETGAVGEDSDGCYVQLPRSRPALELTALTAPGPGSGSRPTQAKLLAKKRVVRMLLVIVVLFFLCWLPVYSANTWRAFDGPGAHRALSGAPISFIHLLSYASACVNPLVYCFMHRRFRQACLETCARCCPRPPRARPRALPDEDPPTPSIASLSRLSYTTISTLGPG
# [3] = target: Muscarinic acetylcholine receptor M3 (Homo sapiens, UniProt P20309)
# [4] = target: D(1A) dopamine receptor (Homo sapiens, UniProt P21728)
# [5] = target: D(3) dopamine receptor (Homo sapiens, UniProt P35462)
# [6] = target: T3, Endothelin-1 receptor (Homo sapiens, UniProt P25101)
# T3 sequence (P25101 whole entry): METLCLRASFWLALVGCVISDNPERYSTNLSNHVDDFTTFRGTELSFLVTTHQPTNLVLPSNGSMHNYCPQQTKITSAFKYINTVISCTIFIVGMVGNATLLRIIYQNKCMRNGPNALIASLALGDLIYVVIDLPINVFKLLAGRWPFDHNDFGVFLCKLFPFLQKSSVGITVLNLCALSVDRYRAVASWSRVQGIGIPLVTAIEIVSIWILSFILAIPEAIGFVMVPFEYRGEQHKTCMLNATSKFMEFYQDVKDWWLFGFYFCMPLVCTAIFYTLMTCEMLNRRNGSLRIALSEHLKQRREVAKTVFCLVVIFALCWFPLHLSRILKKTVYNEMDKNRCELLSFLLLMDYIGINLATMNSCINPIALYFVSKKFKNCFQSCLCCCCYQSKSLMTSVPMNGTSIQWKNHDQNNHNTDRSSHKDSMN
# [7] = target: Glutamate receptor ionotropic, NMDA 1 (Rattus norvegicus, UniProt P35439)
# [8] = target: Histamine H1 receptor (Homo sapiens, UniProt P35367)
# [9] = target: Histamine H3 receptor (Homo sapiens, UniProt Q9Y5N1)
# [10] = target: T4, 5-hydroxytryptamine receptor 1A (Homo sapiens, UniProt P08908); type: functional, cell-based
# T4 sequence (P08908 whole entry): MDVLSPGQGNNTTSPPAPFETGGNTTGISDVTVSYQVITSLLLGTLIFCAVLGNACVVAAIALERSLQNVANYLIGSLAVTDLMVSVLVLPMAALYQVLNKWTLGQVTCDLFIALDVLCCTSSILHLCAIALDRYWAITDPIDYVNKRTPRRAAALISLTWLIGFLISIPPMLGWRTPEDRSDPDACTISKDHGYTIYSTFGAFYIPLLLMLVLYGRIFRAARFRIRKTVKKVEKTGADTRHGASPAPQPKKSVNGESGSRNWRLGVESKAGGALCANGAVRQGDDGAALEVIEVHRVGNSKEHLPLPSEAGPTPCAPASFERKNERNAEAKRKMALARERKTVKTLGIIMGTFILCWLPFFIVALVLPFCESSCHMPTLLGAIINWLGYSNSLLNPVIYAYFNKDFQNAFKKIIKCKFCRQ
# [11] = target: T4, 5-hydroxytryptamine receptor 1A
# [12] = target: Sodium-dependent noradrenaline transporter (Homo sapiens, UniProt P23975)
# [13] = target: Sodium-dependent serotonin transporter (Homo sapiens, UniProt P31645)
# [14] = target: T5, Thromboxane A2 receptor (Homo sapiens, UniProt P21731)
# T5 sequence (P21731 whole entry): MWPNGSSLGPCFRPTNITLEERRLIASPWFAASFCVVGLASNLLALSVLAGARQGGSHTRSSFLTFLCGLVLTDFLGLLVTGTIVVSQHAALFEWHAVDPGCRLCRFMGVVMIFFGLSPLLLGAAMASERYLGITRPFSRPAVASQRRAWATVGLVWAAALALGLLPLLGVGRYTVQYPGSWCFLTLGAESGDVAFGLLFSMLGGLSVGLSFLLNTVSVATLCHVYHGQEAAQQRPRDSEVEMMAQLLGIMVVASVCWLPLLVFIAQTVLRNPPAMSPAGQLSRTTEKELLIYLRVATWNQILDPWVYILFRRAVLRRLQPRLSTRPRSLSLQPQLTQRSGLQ
# [15] = target: Melanocortin receptor 4 (Homo sapiens, UniProt P32245)
# [16] = target: Beta-2 adrenergic receptor (Homo sapiens, UniProt P07550)
# Note: assay procedure not described here.
# Sequence of Beta-2 adrenergic receptor (P07550 whole entry): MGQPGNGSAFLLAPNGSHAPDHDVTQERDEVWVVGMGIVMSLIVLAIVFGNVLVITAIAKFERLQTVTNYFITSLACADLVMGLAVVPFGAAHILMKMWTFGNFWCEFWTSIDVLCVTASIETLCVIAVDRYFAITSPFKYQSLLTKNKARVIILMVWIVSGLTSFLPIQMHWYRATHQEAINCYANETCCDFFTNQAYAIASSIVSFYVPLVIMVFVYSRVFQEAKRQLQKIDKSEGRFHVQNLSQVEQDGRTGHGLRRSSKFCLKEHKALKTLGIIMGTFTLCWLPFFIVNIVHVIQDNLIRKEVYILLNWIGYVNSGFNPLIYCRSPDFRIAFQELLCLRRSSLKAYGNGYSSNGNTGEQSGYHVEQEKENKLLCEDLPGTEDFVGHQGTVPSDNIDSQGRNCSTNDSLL
# Sequence of Histamine H1 receptor (P35367 whole entry): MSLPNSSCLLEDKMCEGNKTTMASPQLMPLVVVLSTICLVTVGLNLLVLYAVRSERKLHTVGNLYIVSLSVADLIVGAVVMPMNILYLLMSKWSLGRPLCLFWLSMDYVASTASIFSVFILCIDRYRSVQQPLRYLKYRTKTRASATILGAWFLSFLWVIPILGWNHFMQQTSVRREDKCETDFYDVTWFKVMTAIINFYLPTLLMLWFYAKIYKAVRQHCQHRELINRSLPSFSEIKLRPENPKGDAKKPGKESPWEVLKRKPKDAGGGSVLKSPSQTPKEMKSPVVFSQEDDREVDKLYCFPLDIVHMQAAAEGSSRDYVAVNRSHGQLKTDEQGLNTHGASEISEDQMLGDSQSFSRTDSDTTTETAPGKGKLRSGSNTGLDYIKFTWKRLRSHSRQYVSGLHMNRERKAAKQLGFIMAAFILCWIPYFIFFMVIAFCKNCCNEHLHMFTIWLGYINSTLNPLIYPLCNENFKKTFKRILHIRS
# Sequence of Muscarinic acetylcholine receptor M3 (P20309 whole entry): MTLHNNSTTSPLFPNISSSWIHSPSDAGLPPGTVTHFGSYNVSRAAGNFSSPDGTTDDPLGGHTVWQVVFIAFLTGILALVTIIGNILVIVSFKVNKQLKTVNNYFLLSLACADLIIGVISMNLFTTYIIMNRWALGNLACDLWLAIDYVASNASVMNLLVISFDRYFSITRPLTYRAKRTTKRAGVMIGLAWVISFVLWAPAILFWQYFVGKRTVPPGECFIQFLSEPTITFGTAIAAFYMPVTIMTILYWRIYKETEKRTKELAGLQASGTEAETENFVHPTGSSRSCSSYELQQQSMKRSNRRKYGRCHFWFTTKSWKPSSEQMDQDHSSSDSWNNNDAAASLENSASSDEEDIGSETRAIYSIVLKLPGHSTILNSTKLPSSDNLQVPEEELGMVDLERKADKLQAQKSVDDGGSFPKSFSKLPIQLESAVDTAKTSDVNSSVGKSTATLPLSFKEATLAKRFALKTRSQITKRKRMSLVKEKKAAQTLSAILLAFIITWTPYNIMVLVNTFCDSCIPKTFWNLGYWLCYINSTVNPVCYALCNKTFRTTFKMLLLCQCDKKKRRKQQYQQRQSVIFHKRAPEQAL
# Sequence of D(3) dopamine receptor (P35462 whole entry): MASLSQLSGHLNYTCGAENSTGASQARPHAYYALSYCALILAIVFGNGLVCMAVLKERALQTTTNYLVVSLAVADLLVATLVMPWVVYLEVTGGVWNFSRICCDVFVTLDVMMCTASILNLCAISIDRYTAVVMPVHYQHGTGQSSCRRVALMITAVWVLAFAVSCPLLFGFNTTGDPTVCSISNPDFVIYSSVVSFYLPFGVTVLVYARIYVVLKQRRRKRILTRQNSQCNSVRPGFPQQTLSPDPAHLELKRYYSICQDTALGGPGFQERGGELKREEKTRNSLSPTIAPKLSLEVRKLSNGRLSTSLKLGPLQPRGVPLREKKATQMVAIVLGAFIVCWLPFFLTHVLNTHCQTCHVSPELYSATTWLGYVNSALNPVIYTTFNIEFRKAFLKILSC
# Sequence of Melanocortin receptor 4 (P32245 whole entry): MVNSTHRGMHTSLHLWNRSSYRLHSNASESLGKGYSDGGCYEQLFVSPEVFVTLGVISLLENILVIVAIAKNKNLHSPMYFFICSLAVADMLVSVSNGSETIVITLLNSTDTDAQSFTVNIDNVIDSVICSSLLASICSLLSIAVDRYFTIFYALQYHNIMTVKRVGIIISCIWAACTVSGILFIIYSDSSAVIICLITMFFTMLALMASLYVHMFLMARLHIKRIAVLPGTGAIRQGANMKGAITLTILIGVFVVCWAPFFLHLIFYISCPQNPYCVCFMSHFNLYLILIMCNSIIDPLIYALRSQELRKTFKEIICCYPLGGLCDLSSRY
# Sequence of Histamine H3 receptor (Q9Y5N1 whole entry): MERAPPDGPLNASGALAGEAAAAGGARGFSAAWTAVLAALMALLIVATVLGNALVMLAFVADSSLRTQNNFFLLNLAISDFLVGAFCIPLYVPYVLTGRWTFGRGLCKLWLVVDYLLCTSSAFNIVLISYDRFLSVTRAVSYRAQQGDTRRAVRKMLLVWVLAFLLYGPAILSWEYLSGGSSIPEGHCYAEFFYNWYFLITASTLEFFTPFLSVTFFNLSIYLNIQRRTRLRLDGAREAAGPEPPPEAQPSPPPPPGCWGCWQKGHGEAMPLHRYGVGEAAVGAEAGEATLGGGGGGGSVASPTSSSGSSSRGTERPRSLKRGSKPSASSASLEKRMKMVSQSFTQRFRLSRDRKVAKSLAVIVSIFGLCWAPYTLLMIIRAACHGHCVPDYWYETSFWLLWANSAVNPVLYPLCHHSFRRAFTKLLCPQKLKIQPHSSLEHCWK
# Sequence of D(1A) dopamine receptor (P21728 whole entry): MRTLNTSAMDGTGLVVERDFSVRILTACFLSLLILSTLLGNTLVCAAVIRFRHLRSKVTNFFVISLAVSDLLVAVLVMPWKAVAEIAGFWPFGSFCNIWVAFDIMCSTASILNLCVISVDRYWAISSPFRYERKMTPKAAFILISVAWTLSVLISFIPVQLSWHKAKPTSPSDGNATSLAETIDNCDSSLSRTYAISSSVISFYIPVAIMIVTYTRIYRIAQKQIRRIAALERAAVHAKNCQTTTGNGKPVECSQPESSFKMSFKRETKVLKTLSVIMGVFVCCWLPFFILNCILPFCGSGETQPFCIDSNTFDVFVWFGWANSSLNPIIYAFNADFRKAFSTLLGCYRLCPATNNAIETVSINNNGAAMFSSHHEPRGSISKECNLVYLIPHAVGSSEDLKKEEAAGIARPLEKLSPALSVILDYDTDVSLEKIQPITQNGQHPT
# Sequence of Sodium-dependent serotonin transporter (P31645 whole entry): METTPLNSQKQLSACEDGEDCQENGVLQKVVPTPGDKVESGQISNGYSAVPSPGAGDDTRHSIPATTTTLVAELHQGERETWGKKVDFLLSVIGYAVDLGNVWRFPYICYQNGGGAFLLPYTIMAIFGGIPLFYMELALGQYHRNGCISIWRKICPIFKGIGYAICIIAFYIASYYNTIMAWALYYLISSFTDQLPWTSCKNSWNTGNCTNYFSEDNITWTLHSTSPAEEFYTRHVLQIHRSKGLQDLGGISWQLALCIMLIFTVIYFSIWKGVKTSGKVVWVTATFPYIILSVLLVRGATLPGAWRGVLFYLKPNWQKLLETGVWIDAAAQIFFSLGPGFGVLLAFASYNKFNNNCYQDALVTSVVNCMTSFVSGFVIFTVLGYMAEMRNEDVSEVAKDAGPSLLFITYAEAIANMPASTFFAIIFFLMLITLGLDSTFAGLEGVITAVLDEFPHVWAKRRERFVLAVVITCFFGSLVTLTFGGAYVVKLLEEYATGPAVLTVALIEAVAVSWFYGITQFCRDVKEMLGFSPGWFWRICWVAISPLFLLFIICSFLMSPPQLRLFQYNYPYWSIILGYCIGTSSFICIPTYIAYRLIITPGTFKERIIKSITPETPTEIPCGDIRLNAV
# Sequence of Sodium-dependent noradrenaline transporter (P23975 whole entry): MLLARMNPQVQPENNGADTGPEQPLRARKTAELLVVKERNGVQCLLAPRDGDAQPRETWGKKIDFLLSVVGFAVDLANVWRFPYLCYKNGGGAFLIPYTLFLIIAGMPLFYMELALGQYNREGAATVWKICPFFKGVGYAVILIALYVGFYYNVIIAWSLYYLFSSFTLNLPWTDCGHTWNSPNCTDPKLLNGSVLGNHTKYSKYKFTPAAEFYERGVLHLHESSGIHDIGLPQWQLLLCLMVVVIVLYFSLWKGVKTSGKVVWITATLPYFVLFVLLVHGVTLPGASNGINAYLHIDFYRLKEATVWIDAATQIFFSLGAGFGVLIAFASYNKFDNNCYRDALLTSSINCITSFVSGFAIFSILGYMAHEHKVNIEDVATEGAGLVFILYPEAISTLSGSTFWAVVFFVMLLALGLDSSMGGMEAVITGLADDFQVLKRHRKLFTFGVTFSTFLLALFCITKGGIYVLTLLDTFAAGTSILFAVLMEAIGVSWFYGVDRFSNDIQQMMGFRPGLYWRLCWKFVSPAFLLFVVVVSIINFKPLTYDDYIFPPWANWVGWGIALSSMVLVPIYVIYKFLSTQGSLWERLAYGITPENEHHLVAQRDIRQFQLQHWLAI
SMILES,AC50 [1] [µM],AC50 [2] [µM],AC50 [3] [µM],AC50 [4] [µM],AC50 [5] [µM],AC50 [6] [µM],AC50 [7] [µM],AC50 [8] [µM],AC50 [9] [µM],AC50 [10] [µM],AC50 [11] [µM],AC50 [12] [µM],AC50 [13] [µM],AC50 [14] [µM],AC50 [15] [µM],AC50 [16] [µM]
C=CCc1ccccc1OCC(O)CNC(C)C (stereo not given) [ALPRENOLOL],14,> 30,> 30,> 0.3,> 0.3,> 30,> 30,> 30,> 0.3,4.8,0.0146,> 0.3,> 0.3,> 30,–,–
O=C(Cc1ccc(-c2ccccc2)cc1)Nc1ccccn1 [DIFENPIRAMIDE],–,–,> 30,> 30,> 30,–,> 30,> 30,> 30,–,> 30,2.16,> 30,–,–,–
O=C(O)c1cc(O)ccc1O [GENTISIC ACID],–,–,–,> 30,> 30,–,–,–,> 30,–,> 30,> 30,> 30,–,–,–
O=C(OCC(O)CO)c1ccccc1Nc1ccnc2cc(Cl)ccc12 (stereo not given) [GLAFENINE],–,–,> 30,> 30,> 30,> 30,–,> 30,> 30,> 30,> 30,17,> 30,–,–,–
C[N+]1(C)CCC(OC(=O)C(O)(c2ccccc2)C2CCCC2)C1 (stereo not given) [GLYCOPYRRONIUM BROMIDE],> 30,> 30,–,–,–,–,–,–,–,–,–,–,–,> 30,> 30,–
CC(C)Nc1ncccn1 [ISAXONINE],–,–,–,> 30,> 30,–,–,–,> 30,–,> 30,> 30,> 30,–,–,–
N[C@@H](C(=O)N[C@@H]1C(=O)N2C(C(=O)O)=C(Cl)CC[C@H]12)c1ccccc1 [LORACARBEF ANHYDROUS],–,–,–,> 30,> 30,–,–,–,> 30,–,> 30,> 30,> 30,–,–,–
CN1C(C(=O)Nc2ccccn2)=C(O)c2sc(Cl)cc2S1(=O)=O [LORNOXICAM],> 30,> 30,> 30,–,–,–,> 10,> 10,–,> 10,–,–,–,> 30,> 30,> 30
OCCN1C[C@H](O)[C@@H](O)[C@H](O)[C@H]1CO [MIGLITOL],–,–,–,> 30,> 30,–,–,–,> 30,–,> 30,> 30,> 30,–,–,–
CC(=O)N[C@@H]1[C@@H](O)[C@H](O)[C@@H](CO)O[C@H]1O [N-ACETYLGLUCOSAMINE],–,–,–,> 30,> 30,–,–,–,> 30,–,> 30,> 30,> 30,–,–,–
O=C(CCNNC(=O)c1ccncc1)NCc1ccccc1 [NIALAMIDE],–,–,–,> 30,> 30,–,–,–,> 30,–,> 30,> 30,> 30,–,–,–
CC[C@H]1[C@@H](O)[C@@H]2[C@H](CC[C@]3(C)[C@@H]([C@H](C)CCC(=O)O)CC[C@@H]23)[C@@]2(C)CC[C@@H](O)C[C@@H]12 [OBETICHOLIC ACID],> 30,> 30,> 30,> 30,> 30,> 30,> 30,> 30,> 30,–,> 30,> 30,> 30,> 30,–,> 30
CC[N+]1(C)[C@@H]2CC(OC(=O)[C@H](CO)c3ccccc3)C[C@H]1[C@@H]1O[C@@H]12 (stereo not given in full) [OXITROPIUM],–,–,–,> 30,> 30,–,–,–,> 30,–,> 30,> 30,> 30,–,–,–
CC(C)(C)NC[C@H](O)COc1ccccc1C1CCCC1 [PENBUTOLOL],–,–,–,27.8,7.74,–,–,–,> 30,–,0.0036,13.4,5.53,–,–,–
CN(C)S(=O)(=O)c1ccc2c(c1)N(CCCN1CCC(CCO)CC1)c1ccccc1S2 [PIPOTIAZINE],–,–,–,0.0201,0.003,–,–,–,> 30,–,0.32,12,> 30,–,–,–
COCCCN1CCC(NC(=O)c2cc(Cl)c(N)c3c2OCC3)CC1 [PRUCALOPRIDE],–,–,> 30,> 30,> 30,> 30,–,> 30,> 30,> 30,6.1,> 30,> 30,–,–,–
CCC(=O)NCC[C@@H]1CCc2ccc3c(c21)CCO3 [RAMELTEON],–,–,–,> 30,> 30,–,–,–,> 30,–,> 30,> 30,> 30,–,–,–
Cc1c(C(=O)NN2CCCCC2)nn(-c2ccc(Cl)cc2Cl)c1-c1ccc(Cl)cc1 [RIMONABANT],> 30,29.6,> 30,–,–,> 30,> 10,22,–,> 30,–,–,–,18.6,28.2,> 10
CCOC(=O)[C@H](CCc1ccccc1)N[C@@H](C)C(=O)N1[C@H](C(=O)O)C[C@H]2CCCC[C@@H]21 [TRANDOLAPRIL],–,–,–,> 30,> 30,–,–,–,> 30,–,> 30,> 30,> 30,–,–,–
CCCCCCOc1nsnc1C1=CCCN(C)C1 [XANOMELINE],–,–,–,1.22,0.273,–,–,–,3.6,–,0.243,2.74,18.5,–,–,–
Cc1cn([C@H]2C[C@H](N=[N+]=[N-])[C@@H](CO)O2)c(=O)[nH]c1=O [ZIDOVUDINE],> 30,> 30,–,> 30,> 30,> 30,> 10,–,> 30,> 10,> 30,> 30,–,> 30,> 30,> 10
